# Data reported in patent publication US9290440B2, “Bicyclic compound” (TOA EIYO LTD., priority 2012, dated 2016).
# Biological target: T1, human sGC α subunit and β subunit (Homo sapiens, UniProt Q02153)
# T1 construct: expressed in transfected cells
# T1 sequence (Q02153 1-619): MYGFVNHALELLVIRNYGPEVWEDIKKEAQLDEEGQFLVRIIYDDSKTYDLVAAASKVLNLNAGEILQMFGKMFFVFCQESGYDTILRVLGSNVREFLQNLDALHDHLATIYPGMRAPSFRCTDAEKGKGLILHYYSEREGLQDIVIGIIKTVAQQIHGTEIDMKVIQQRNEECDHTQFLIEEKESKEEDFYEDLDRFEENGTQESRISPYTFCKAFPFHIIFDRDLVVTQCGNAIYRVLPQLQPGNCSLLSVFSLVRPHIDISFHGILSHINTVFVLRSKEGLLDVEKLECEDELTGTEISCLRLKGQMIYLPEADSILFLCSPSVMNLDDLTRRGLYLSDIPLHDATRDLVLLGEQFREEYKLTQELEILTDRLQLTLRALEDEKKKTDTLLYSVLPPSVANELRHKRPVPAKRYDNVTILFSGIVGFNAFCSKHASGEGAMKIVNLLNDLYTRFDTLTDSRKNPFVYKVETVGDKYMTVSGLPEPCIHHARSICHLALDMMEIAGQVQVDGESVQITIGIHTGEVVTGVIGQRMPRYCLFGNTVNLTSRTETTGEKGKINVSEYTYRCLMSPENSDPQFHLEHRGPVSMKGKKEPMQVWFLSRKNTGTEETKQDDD
# T1 sequence (Q02108 1-690 partner): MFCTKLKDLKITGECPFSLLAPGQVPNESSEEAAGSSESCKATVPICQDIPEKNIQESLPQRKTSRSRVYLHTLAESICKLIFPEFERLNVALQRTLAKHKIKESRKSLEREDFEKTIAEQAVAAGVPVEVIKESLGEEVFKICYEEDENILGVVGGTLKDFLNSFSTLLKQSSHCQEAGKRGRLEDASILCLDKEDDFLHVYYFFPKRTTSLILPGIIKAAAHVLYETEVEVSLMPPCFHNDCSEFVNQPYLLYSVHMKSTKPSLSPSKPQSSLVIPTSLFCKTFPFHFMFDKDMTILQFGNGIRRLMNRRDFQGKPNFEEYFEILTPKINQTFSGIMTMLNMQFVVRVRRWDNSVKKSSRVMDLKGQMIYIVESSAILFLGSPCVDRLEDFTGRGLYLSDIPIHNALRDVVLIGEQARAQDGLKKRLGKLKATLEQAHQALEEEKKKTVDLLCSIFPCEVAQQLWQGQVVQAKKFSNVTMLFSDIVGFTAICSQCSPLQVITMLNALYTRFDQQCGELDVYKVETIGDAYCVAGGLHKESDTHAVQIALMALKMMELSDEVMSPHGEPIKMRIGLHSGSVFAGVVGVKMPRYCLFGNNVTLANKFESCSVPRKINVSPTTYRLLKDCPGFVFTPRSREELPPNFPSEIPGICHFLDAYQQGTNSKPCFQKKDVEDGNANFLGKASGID
# Experiment: Heme-independent property of sGC activating function (EC50 ratio, CHO-K1 cells expressing human sGC and mouse CNGA2)
# Type: cell-based
# Settings: EC50 in the absence of ODQ divided by EC50 in the presence of ODQ, sGC activation
# Experimental: For the assay, Chinese hamster ovary cells (CHO-K1 cells) in which human sGC α subunit and β subunit and mouse cyclic nucleotide gated channel (CNGA2) are stably expressed were used.
# CHO-K1 cells in which human sGC and mouse CNGA2 are stably expressed were cultured at 37° C. in F-12 medium containing 10% (v/v) fetal bovine serum (FBS), penicillin (100 U/mL), streptomycin (100 μg/mL), G418 (250 μg/mL), and zeocin (250 μg/mL). The cells were suspended in the culture medium and seeded onto a 96-well plate, and then cultured at 37° C. for 24 hours. After washing with assay buffer 1 (140 mmol/L sodium chloride, 5 mmol/L potassium chloride, 0.5 mmol/L magnesium chloride, 0.01 mmol/L calcium chloride, 10 mmol/L glucose, 0.4 mmol/L magnesium sulfate, 10 mmol/L 4-(2-hydroxyethyl)piperazin-1-ylethane sulfonic acid, and 125 μmol/L sulfinpyrazone, pH 7.4), an indicator solution in which FURA2-AM as a fluorescent Ca^2+ indicator is dissolved at concentration of 5 μmol/L in assay buffer 1 was added followed by culture for 60 minutes at 37° C. The indicator solution was removed. After washing with assay buffer 1, the test compound solution was added and incubated for 10 minutes at room temperature. The plate was placed in a fluorometer (Flex Station II, Molecular Devices, LLC), and then the intracellular calcium concentration was measured as fluorescence intensity ratio which is obtained from each excitation wavelength (excitation wavelength of 340 nm and 380 nm and detection wavelength of 510 nm).
# The test compound solution was prepared by dissolving each of the test compounds in DMSO to a concentration of 10 mmol/L, and then adding the assay buffer 2 (140 mmol/L sodium chloride, 5 mmol/L potassium chloride, 0.5 mmol/L magnesium chloride, 1 mmol/L calcium chloride, 10 mmol/L glucose, 0.4 mmol/L magnesium sulfate, 10 mmol/L 4-(2-hydroxyethyl)piperazin-1-ylethane sulfonic acid, 125 μmol/L sulfinpyrazone, 100 μmol/L isobutylmethylxanthine, 10 μmol/L 1H-[1,2,4]-oxadiazole[4,3-a]quinoxalin-1-one (hereinbelow, ODQ), pH 7.4) for dilution to have test concentration of 10 μmol/L. For the evaluation of a case in which ODQ is not contained, the same evaluation was performed except that ODQ is excluded from assay buffer 2. As a control solution, a DMSO solution was used instead of the test compound solution.
# The activity of the test compound corresponds to the increase ratio (%) of the sGC activity at the time of adding the test compound solution with respect to the sGC activity at the time of adding the control solution, and it was calculated by dividing the fluorescence intensity ratio at the time of adding the test compound by the fluorescence intensity ratio of the control solution and subtracting the sGC activity (100%) at the time of adding the control solution.
# For the representative compounds, activity was measured in the same manner as Test Example 1 at each test concentration of 0.0001, 0.001, 0.003, 0.01, 0.03, 0.1, 1, and 10 μmol/L.
# The degree of heme-independent property of each test compound with regard to sGC activating function was obtained by dividing, for EC50 measured from the concentration-activation curve which has been established from the above, EC50 in the absence of ODQ by EC50 in the presence of ODQ. Specifically, the smaller the EC50 ratio is, the less the change in sGC activating function is, the change in the function being caused by the presence or absence of ODQ, and thus it is found to be more heme-independent.
# EC50 value was obtained by measuring the activity of each compound to be tested at concentrations of 0.0001, 0.001, 0.003, 0.01, 0.03, 0.1, 1, and 10 μmol/L and performing the calculation using four-parameter logistics model using Assay Explorer (Accelrys).
row,Structure (SMILES),EC50 Ratio (ODQ−/ODQ+)
1,"O=C(O)CCCCN(CCc1ccccc1OCc1ccc(CCc2ccccc2)cc1)Cc1ccc(C(=O)O)cc1 [Cinaciguat, reference compound]",3.08
2,"O=C(O)CCCCN(CCc1ccccc1OCc1cccc2c1CCCC2)C1CCCc2cc(C(=O)O)ccc21 (stereo not drawn) [Example 29, 5-{N-(4-Carboxybutyl)-N-[2-[2-(5,6,7,8-tetrahydronaphthalene-1-ylmethoxy)phenyl]ethyl]amino}-5,6,7,8-tetrahydronaphthalene-2-carboxylic acid]",1.71
3,"O=C(O)CCCCN(CCc1ccccc1OCc1ccc(SCc2ccccc2)cc1)C1CCCc2cc(C(=O)O)ccc21 (stereo not drawn) [Example 15, 5-{N-[2-[2-(4-Benzylsulfanylbenzyloxyl)phenyl]ethyl]-N-(4-carboxybutyl)amino}-5,6,7,8-tetrahydronaphthalene-2-carboxylic acid]",1.40
